Experimental data: US12473295B2, “Substituted straight chain spiro derivatives” (Janssen Pharmaceutica NV, priority 2019, dated 2025)
Where a name gives a salt, the structure may show the parent alone. Read-outs that look alike come from different tables or passages of the source.

Experiments:
KO-52 cells = test: Proliferation assay (spheroid growth, 8 days), KO-52 control cell line; assay type: cell-based, human; conditions: read-out: spheroid assay_OneTime KO-52 IC50
Protocol: (§1) The anti-proliferative effect of menin/MLL protein/protein interaction inhibitor test compounds was assessed in human leukemia cell lines. The cell line MOLM14 harbors a MLL translocation and expresses the MLL fusion protein MLL-AF9, respectively, as well as the wildtype protein from the second allele. OCI-AML3 cells that carry the NPM1c gene mutation were also tested. […] KO-52 was used as a control cell line containing two MLL (KMT2A) wildtype alleles in order to exclude compounds that display general cytotoxic effects.
(§2) KO-52 and OCI-AML3 cell lines were propagated in alpha-MEM (Sigma Aldrich) supplemented with 20% heat-inactivated fetal bovine serum (HyClone), 2 mM L-glutamine (Sigma Aldrich) and 50 μg/ml gentamycin (Gibco).
(§3) In order to assess the anti-proliferative effects, 200 MOLM14 cells, 200 OCI-AML3 cells or 300 KO-52 cells were seeded in 200 μl media per well in […] round bottom, ultra-low attachment plates (Costar, catalogue number 7007). Cell seeding numbers were chosen based on growth curves to ensure linear growth throughout the experiment. Test compounds were added at different concentrations and the DMSO content was normalized to 0.3%. Cells were incubated for 8 days at 37° C. and 5% CO2. Spheroid like growth was measured in real-time by live-cell imaging (IncuCyteZOOM, Essenbio, 4× objective) acquiring images at day 8. Confluence (%) as a measure of spheroid size was determined using an integrated analysis tool.
(§4) In order to determine the effect of the test compounds over time, the confluence in each well as a measure of spheroid size, was calculated. Confluence of the highest dose of a reference compound was used as baseline for the LC (Low control) and the confluence of DMSO treated cells was used as 0% cytotoxicity (High Control, HC).
(§5) GraphPad Prism(version 7.00) was used to calculate the IC50. Dose-response equation was used for the plot of % Effect vs Log 10 compound concentration with a variable slope and fixing the maximum to 100% and the minimum to 0%.

[1] = target: menin/MLL (terbium chelate-labeled menin, FITC-MBM1 peptide) (Homo sapiens (Human), UniProt O00255); test: Menin/MLL homogenous time-resolved fluorescence (HTRF) assay; assay type: binding;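 also: IC50 from percent inhibition of HTRF signal, normalized between wells without competitor and wells with a saturating competitor that displaces FITC-MBM1 from His-tagged menin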
MEIS1 mRNA = MEIS1 mRNA expression assay (Quantigene Singleplex) in MOLM14 cells; assay type: cell-based, human; conditions: 48 hours incubation;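 also: MEIS1 transcript levels read by probe hybridization and normalized to RPL28 mRNA, with IC50 fitted to fold changes across a rising compound concentration series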
MOLM14 cells = test: Proliferation assay (spheroid growth, 8 days), MOLM14; assay type: cell-based, human; conditions: MOLM14, 8 days, read-out: spheroid assay_OneTime MOLM14 IC50;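 also: spheroid size read as confluence by live-cell imaging, compounds added at a range of concentrations with 0.3% DMSO, DMSO-treated wells = 0%, highest reference dose = low control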
OCI-AML3 cells = test: Proliferation assay (spheroid growth, 8 days), OCI-AML3; assay type: cell-based, human; conditions: Homo sapiens, OCI-AML-3, […], OCI-AML3, 8 days
Protocol: as §1, §2, §3, §4, §5

[2] = HTRF-30 min incubation IC50, 30 min incubation
[3] = read-out: HTRF-30 min incubation IC50, 30 min incubation

menin/MLL (terbium chelate-labeled menin, FITC-MBM1 peptide), sequence (O00255 other isoform, or with tags, fused parts or gaps): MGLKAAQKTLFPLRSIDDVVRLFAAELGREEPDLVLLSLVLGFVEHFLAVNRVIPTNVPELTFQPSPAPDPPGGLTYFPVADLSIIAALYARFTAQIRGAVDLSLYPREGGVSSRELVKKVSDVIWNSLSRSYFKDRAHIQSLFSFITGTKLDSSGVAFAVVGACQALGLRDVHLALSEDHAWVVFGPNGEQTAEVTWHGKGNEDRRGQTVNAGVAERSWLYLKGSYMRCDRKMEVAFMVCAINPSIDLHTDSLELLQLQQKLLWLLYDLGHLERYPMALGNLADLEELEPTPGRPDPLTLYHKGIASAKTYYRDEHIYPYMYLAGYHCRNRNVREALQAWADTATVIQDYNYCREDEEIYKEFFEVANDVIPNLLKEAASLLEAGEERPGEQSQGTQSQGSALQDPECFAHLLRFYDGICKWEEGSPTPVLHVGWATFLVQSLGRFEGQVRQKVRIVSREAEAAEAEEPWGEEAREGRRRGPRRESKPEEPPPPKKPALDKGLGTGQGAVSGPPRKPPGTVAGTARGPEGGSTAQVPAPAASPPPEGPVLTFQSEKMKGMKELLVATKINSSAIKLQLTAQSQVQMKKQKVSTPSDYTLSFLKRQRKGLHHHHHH

`CCN(C(=O)c1cc(F)ccc1Oc1nncnc1N1CCC2(C1)CN([C@@H](CN)C(C)C)C2)C(C)C` (single isomer, unassigned) [Compound 25, (*R)-2-((5-(2-(1-amino-3-methylbutan-2-yl)-2,6-diazaspiro[3.4]octan-6-yl)-1,2,4-triazin-6-yl)oxy)-N-ethyl-5-fluoro-N-isopropylbenzamide] gave an IC50 (KO-52 cells; Homo sapiens, […]) greater than 15000 nM, an IC50 [1, 2] of 10.5 nM and an IC50 (MEIS1 mRNA; Homo sapiens, MOLM-14, 48 h) of roughly 1200 nM. It also gave an IC50 (MOLM14 cells; Homo sapiens, MOLM-14, […]) greater than 3750 nM.

With `CCN(C(=O)c1cc(F)ccc1Oc1nncnc1N1CCC2(C1)CN([C@@H](CCC(C)(C)N)C(C)C)C2)C(C)C` (single isomer, unassigned) [Compound 31, (*S)-2-((5-(2-(6-amino-2,6-dimethylheptan-3-yl)-2,6-diazaspiro[3.4]octan-6-yl)-1,2,4-triazin-6-yl)oxy)-N-ethyl-5-fluoro-N-isopropylbenzamide] the IC50 (KO-52 cells; Homo sapiens, […]) was greater than 15000 nM, the IC50 [1, 2] was 2.28 nM and the IC50 (MEIS1 mRNA; Homo sapiens, MOLM-14, 48 h) was greater than 1000 nM. It also gave an IC50 (MOLM14 cells; Homo sapiens, MOLM-14, […]) greater than 940 nM.

`CCN(C(=O)c1cc(F)ccc1Oc1nncnc1N1CCC2(C1)CN([C@@H](CCC(C)(C)N(C)C)C(C)C)C2)C(C)C` (single isomer, unassigned) [Compound 33, (*S)-2-((5-(2-(6-(dimethylamino)-2,6-dimethylheptan-3-yl)-2,6-diazaspiro[3.4]octan-6-yl)-1,2,4-triazin-6-yl)oxy)-N-ethyl-5-fluoro-N-isopropylbenzamide] was tested, and the IC50 (KO-52 cells; Homo sapiens, […]) was greater than 15000 nM, the IC50 [1, 2] was 2.84 nM and the IC50 (MEIS1 mRNA; Homo sapiens, MOLM-14, 48 h) was greater than 1000 nM. It also gave an IC50 (MOLM14 cells; Homo sapiens, MOLM-14, […]) greater than 940 nM.

In the case of `CCN(C(=O)c1cc(F)ccc1Oc1nncnc1N1CCC2(C1)CN([C@@H](CCC(C)(C)NC)C(C)C)C2)C(C)C` (single isomer, unassigned) [Compound 36, (*S)-2-((5-(2-(2,6-dimethyl-6-(methylamino)heptan-3-yl)-2,6-diazaspiro[3.4]octan-6-yl)-1,2,4-triazin-6-yl)oxy)-N-ethyl-5-fluoro-N-isopropylbenzamide hydrochloride], the IC50 (KO-52 cells; Homo sapiens, […]) is reported as greater than 15000 nM, the IC50 [1, 2] is reported as 2.6 nM and the IC50 (MEIS1 mRNA; Homo sapiens, MOLM-14, 48 h) is reported as greater than 1000 nM. It also gave an IC50 (MOLM14 cells; Homo sapiens, MOLM-14, […]) greater than 940 nM.

With `CC(C)[C@H](CCC(C)(C)N)N1CC2(CCN(c3ncnnc3Oc3ccc(F)cc3-c3cncnc3C3CC3)C2)C1` (single isomer, unassigned) [Compound 38, (*S)-5-(6-(6-(2-(4-cyclopropylpyrimidin-5-yl)-4-fluorophenoxy)-1,2,4-triazin-5-yl)-2,6-diazaspiro[3.4]octan-2-yl)-2,6-dimethylheptan-2-amine] the IC50 (KO-52 cells; Homo sapiens, […]) was greater than 15000 nM, the IC50 [1, 2] was 1.16 nM and the IC50 (MEIS1 mRNA; Homo sapiens, MOLM-14, 48 h) was roughly 1100 nM. The IC50 (MOLM14 cells; Homo sapiens, MOLM-14, […]) was 520 nM.

In the case of `CC(C)[C@H](CCC(N)=O)N1CC2(CCN(c3ncnnc3Oc3ccc(F)cc3-c3cncnc3C3CC3)C2)C1` (single isomer, unassigned) [Compound 44], the IC50 (KO-52 cells; Homo sapiens, […]) is reported as greater than 15000 nM, the IC50 [1, 2] is reported as 46.6 nM and the IC50 (MEIS1 mRNA; Homo sapiens, MOLM-14, 48 h) is reported as greater than 2500 nM. The IC50 (MOLM14 cells; Homo sapiens, MOLM-14, […]) was greater than 3750 nM.

`CNC(=O)CC[C@H](C(C)C)N1CC2(CCN(c3ncnnc3Oc3ccc(F)cc3-c3cncnc3C3CC3)C2)C1` (single isomer, unassigned) [Compound 46, (*R)-4-(6-(6-(2-(4-cyclopropylpyrimidin-5-yl)-4-fluorophenoxy)-1,2,4-triazin-5-yl)-2,6-diazaspiro[3.4]octan-2-yl)-N,5-dimethylhexanamide] gave an IC50 (KO-52 cells) greater than 15000 nM, an IC50 [1, 3] of 59.7 nM and an IC50 (MEIS1 mRNA) greater than 2500 nM. It also gave an IC50 (MOLM14 cells) greater than 3750 nM.

Work on `CCN(C(=O)c1cc(F)ccc1Oc1nncnc1N1CCC2(C1)CN([C@@H](CCCO)C(C)C)C2)C(C)C` (single isomer, unassigned) [Compound 48, (*S)—N-ethyl-5-fluoro-2-((5-(2-(6-hydroxy-2-methylhexan-3-yl)-2,6-diazaspiro[3.4]octan-6-yl)-1,2,4-triazin-6-yl)oxy)-N-isopropylbenzamide] yielded an IC50 (KO-52 cells) greater than 15000 nM, an IC50 [1, 3] of 70.4 nM and an IC50 (MEIS1 mRNA) greater than 1000 nM. The IC50 (MOLM14 cells) was greater than 940 nM.

In the case of `CCN(C(=O)c1cc(F)ccc1Oc1nncnc1N1CCC2(C1)CN([C@@H](CCCN)C(C)C)C2)C(C)C` [Compound 2, (S)-2-((5-(2-(6-amino-2-methylhexan-3-yl)-2,6-diazaspiro[3.4]octan-6-yl)-1,2,4-triazin-6-yl)oxy)-N-ethyl-5-fluoro-N-isopropylbenzamide formate], the IC50 (KO-52 cells; Homo sapiens, […]) is reported as greater than 15000 nM, the IC50 [1, 2] is reported as 3.31 nM and the IC50 (MEIS1 mRNA; Homo sapiens, MOLM-14, 48 h) is reported as greater than 2500 nM. It also gave an IC50 (MOLM14 cells; Homo sapiens, MOLM-14, […]) of 2220 nM.

Compound `CCN(C(=O)c1cc(F)ccc1Oc1nncnc1N1CCC2(C1)CN([C@@H](CCCN(C)C)C(C)C)C2)C(C)C` [Compound 5, (S)-2-((5-(2-(6-(dimethylamino)-2-methylhexan-3-yl)-2,6-diazaspiro[3.4]octan-6-yl)-1,2,4-triazin-6-yl)oxy)-N-ethyl-5-fluoro-N-isopropylbenzamide formate] has an IC50 (KO-52 cells; Homo sapiens, […]) greater than 15000 nM, an IC50 [1, 2] of 2.26 nM and an IC50 (MEIS1 mRNA; Homo sapiens, MOLM-14, 48 h) of roughly 990 nM. For the same compound, the IC50 (MOLM14 cells; Homo sapiens, MOLM-14, […]) was 840 nM.

Compound `CCN(C(=O)c1cc(F)ccc1Oc1nncnc1N1CCC2(C1)CN([C@@H](CCCNC(C)=O)C(C)C)C2)C(C)C` [Compound 7, (S)-2-((5-(2-(6-acetamido-2-methylhexan-3-yl)-2,6-diazaspiro[3.4]octan-6-yl)-1,2,4-triazin-6-yl)oxy)-N-ethyl-5-fluoro-N-isopropylbenzamide] has an IC50 (KO-52 cells; Homo sapiens, […]) greater than 15000 nM, an IC50 [1, 2] of 86.2 nM and an IC50 (MEIS1 mRNA; Homo sapiens, MOLM-14, 48 h) greater than 2500 nM. It also gave an IC50 (MOLM14 cells; Homo sapiens, MOLM-14, […]) greater than 3750 nM.

`CCN(C(=O)c1cc(F)ccc1Oc1nncnc1N1CCC2(C1)CN([C@@H](CCCNC(=O)NC)C(C)C)C2)C(C)C` [Compound 9, (S)—N-ethyl-5-fluoro-N-isopropyl-2-((5-(2-(2-methyl-6-(3-methylureido)hexan-3-yl)-2,6-diazaspiro[3.4]octan-6-yl)-1,2,4-triazin-6-yl)oxy)benzamide] showed an IC50 (KO-52 cells; Homo sapiens, […]) greater than 15000 nM, an IC50 [1, 2] of 44.7 nM and an IC50 (MOLM14 cells; Homo sapiens, MOLM-14, […]) greater than 3750 nM.

`CCN(C(=O)c1cc(F)ccc1Oc1nncnc1N1CCC2(C1)CN([C@H](CCCN(C)CC(F)F)C(C)C)C2)C(C)C` [Compound 16, (R)-2-((5-(2-(6-((2,2-difluoroethyl)(methyl)amino)-2-methylhexan-3-yl)-2,6-diazaspiro[3.4]octan-6-yl)-1,2,4-triazin-6-yl)oxy)-N-ethyl-5-fluoro-N-isopropylbenzamide] was tested, and the IC50 (KO-52 cells; Homo sapiens, […]) was 10500 nM, the IC50 [1, 2] was 1.85 nM and the IC50 (MEIS1 mRNA; Homo sapiens, MOLM-14, 48 h) was roughly 670 nM. The IC50 (MOLM14 cells; Homo sapiens, MOLM-14, […]) was 370 nM.

`CCN(C(=O)c1cc(F)ccc1Oc1nncnc1N1CCC2(C1)CN([C@@H](CCCNC)C(C)C)C2)C(C)C` [Compound 20, (S)—N-ethyl-5-fluoro-N-isopropyl-2-((5-(2-(2-methyl-6-(methylamino)hexan-3-yl)-2,6-diazaspiro[3.4]octan-6-yl)-1,2,4-triazin-6-yl)oxy)benzamide hydrochloride] was tested, and the IC50 (KO-52 cells; Homo sapiens, […]) was greater than 15000 nM and the IC50 (MOLM14 cells; Homo sapiens, MOLM-14, […]) was greater than 940 nM.

`CCN(C(=O)c1cc(F)ccc1Oc1nncnc1N1CCC2(C1)CN([C@H](CCCN(C)CC(F)(F)F)C(C)C)C2)C(C)C` [Compound 21, (R)-N-ethyl-5-fluoro-N-isopropyl-2-((5-(2-(2-methyl-6-(methyl(2,2,2-trifluormethyl)amino)hexan-3-yl)-2,6-diazaspiro[3.4]octan-6-yl)-1,2,4-triazin-6-yl)oxy)benzamide] was tested, and the IC50 (KO-52 cells; Homo sapiens, […]) was greater than 15000 nM, the IC50 [1, 2] was 10.4 nM and the IC50 (MEIS1 mRNA; Homo sapiens, MOLM-14, 48 h) was greater than 1000 nM. For the same compound, the IC50 (MOLM14 cells; Homo sapiens, MOLM-14, […]) was greater than 940 nM.

For `CCN(C(=O)c1cc(F)ccc1Oc1nncnc1N1CCC2(C1)CN(C(CCNC(C)=O)C(C)C)C2)C(C)C` (stereo not drawn) [Compound 29], the IC50 (KO-52 cells; Homo sapiens, […]) was greater than 15000 nM, the IC50 [1, 2] was 2.42 nM and the IC50 (MEIS1 mRNA; Homo sapiens, MOLM-14, 48 h) was roughly 2250 nM. It also gave an IC50 (MOLM14 cells; Homo sapiens, MOLM-14, […]) of 970 nM.

`CCN(C(=O)c1cc(F)ccc1Oc1nnc(Cl)nc1N1CCC2(C1)CN([C@H](CCCN(C)C)C(C)C)C2)C(C)C` [Compound 411, (R)-2-((3-chloro-5-(2-(6-(dimethylamino)-2-methylhexan-3-yl)-2,6-diazaspiro[3.4]octan-6-yl)-1,2,4-triazin-6-yl)oxy)-N-ethyl-5-fluoro-N-isopropylbenzamide formate] was tested, and the IC50 [1, 2] was 0.33 nM, the IC50 (OCI-AML3 cells) was 680 nM and the IC50 (MEIS1 mRNA; Homo sapiens, MOLM-14, 48 h) was 110 nM. For the same compound, the IC50 (MOLM14 cells; Homo sapiens, MOLM-14, […]) was 210 nM.

Compound `CCN(C(=O)c1cc(F)ccc1Oc1nnc(C)nc1N1CCC2(C1)CN([C@H](CCCN)C(C)C)C2)C(C)C` [Compound 413, (R)-2-((5-(2-(6-amino-2-methylhexan-3-yl)-2,6-diazaspiro[3.4]octan-6-yl)-3-methyl-1,2,4-triazin-6-yl)oxy)-N-ethyl-5-fluoro-N-isopropylbenzamide formate] has an IC50 [1, 2] of 0.051 nM, an IC50 (OCI-AML3 cells) of 1490 nM and an IC50 (MEIS1 mRNA; Homo sapiens, MOLM-14, 48 h) of roughly 590 nM. It also gave an IC50 (MOLM14 cells; Homo sapiens, MOLM-14, […]) of 720 nM.
